Data reported in PubChem BioAssay (NCI).
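Cells were grown in 96-well plates and exposed to each compound for 48 hours at five concentrations; endpoints were interpolated linearly between bracketing concentrations, or set to the highest concentration if not reached. Definition used: TGI = concentration required for complete inhibition of growth.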

Columns and labels:
Test in all cases: NCI-60 cell line screen, 48 h
HT29 colon = system: HT29 colon
MDA-N = system: MDA-N
MOLT-4 leukemia = system: MOLT-4 leukemia
HCT-15 colon = system: HCT-15 colon
SK-MEL-28 melanoma = system: SK-MEL-28 melanoma
MDA-MB-231 breast = system: MDA-MB-231 breast
SK-MEL-2 melanoma = system: SK-MEL-2 melanoma
SNB-75 CNS = system: SNB-75 CNS
K-562 leukemia = system: K-562 leukemia
COLO 205 colon = system: COLO 205 colon
HCT-116 colon = system: HCT-116 colon
T-47D breast = system: T-47D breast
SF-295 CNS = system: SF-295 CNS
HS 578T breast = system: HS 578T breast
SK-OV-3 ovarian = system: SK-OV-3 ovarian
NCI-H23 lung = system: NCI-H23 lung
M14 melanoma = system: M14 melanoma
SR leukemia = system: SR leukemia
UACC-257 melanoma = system: UACC-257 melanoma
CAKI-1 renal = system: CAKI-1 renal
LOX IMVI melanoma = system: LOX IMVI melanoma
TK-10 renal = system: TK-10 renal
SW-620 colon = system: SW-620 colon
OVCAR-5 ovarian = system: OVCAR-5 ovarian
RXF 393 renal = system: RXF 393 renal
SF-268 CNS = system: SF-268 CNS
OVCAR-4 ovarian = system: OVCAR-4 ovarian
EKVX NSCLC = system: EKVX NSCLC
MALME-3M melanoma = system: MALME-3M melanoma
DU-145 prostate = system: DU-145 prostate
KM12 colon = system: KM12 colon
NCI-H226 lung = system: NCI-H226 lung
OVCAR-8 ovarian = system: OVCAR-8 ovarian
IGROV1 ovarian = system: IGROV1 ovarian
PC-3 prostate = system: PC-3 prostate
SK-MEL-5 melanoma = system: SK-MEL-5 melanoma
UO-31 renal = system: UO-31 renal
RPMI-8226 leukemia = system: RPMI-8226 leukemia
HOP-62 NSCLC = system: HOP-62 NSCLC
MCF7 breast = system: MCF7 breast
HCC-2998 colon = system: HCC-2998 colon
SN12C renal = system: SN12C renal
NCI-H522 lung = system: NCI-H522 lung
ACHN renal = system: ACHN renal
UACC-62 melanoma = system: UACC-62 melanoma
U251 CNS = system: U251 CNS
NCI/ADR-RES ovarian = system: NCI/ADR-RES ovarian
SNB-19 CNS = system: SNB-19 CNS
A498 renal = system: A498 renal
OVCAR-3 ovarian = system: OVCAR-3 ovarian
786-0 renal = system: 786-0 renal
BT-549 breast = system: BT-549 breast
CCRF-CEM leukemia = system: CCRF-CEM leukemia
A549 NSCLC = system: A549 NSCLC
NCI-H460 lung = system: NCI-H460 lung
HOP-92 NSCLC = system: HOP-92 NSCLC
SF-539 CNS = system: SF-539 CNS
HL-60(TB) leukemia = system: HL-60(TB) leukemia
MDA-MB-435 = system: MDA-MB-435

SMILES: CC(C)/C(Cl)=N\OC(=O)Nc1ccc(S(N)(=O)=O)cc1
- TGI (HT29 colon): 48.4 µM
- TGI (MDA-N): 32.9 µM
- TGI (MOLT-4 leukemia): 5.42 µM
- TGI (HCT-15 colon): 31.6 µM
- TGI (SK-MEL-28 melanoma): 31.3 µM
- TGI (MDA-MB-231 breast): 25.9 µM
- TGI (SK-MEL-2 melanoma): 34.1 µM
- TGI (SNB-75 CNS): 25.4 µM
- TGI (K-562 leukemia): 5.52 µM
- TGI (COLO 205 colon): 3.92 µM
- TGI (HCT-116 colon): 27.7 µM
- TGI (T-47D breast): 52 µM
- TGI (SF-295 CNS): 29.3 µM
- TGI (HS 578T breast): 63.5 µM
- TGI (SK-OV-3 ovarian): 31.5 µM
- TGI (NCI-H23 lung): 37.8 µM
- TGI (M14 melanoma): 22.1 µM
- TGI (SR leukemia): 5.17 µM
- TGI (UACC-257 melanoma): 32.4 µM
- TGI (CAKI-1 renal): 31.1 µM
- TGI (LOX IMVI melanoma): 7 µM
- TGI (TK-10 renal): 31.8 µM
- TGI (SW-620 colon): 3.41 µM
- TGI (OVCAR-5 ovarian): 33.8 µM
- TGI (RXF 393 renal): 25.2 µM
- TGI (SF-268 CNS): 51.7 µM
- TGI (OVCAR-4 ovarian): 40.1 µM
- TGI (EKVX NSCLC): 32.6 µM
- TGI (MALME-3M melanoma): 10.1 µM
- TGI (DU-145 prostate): 31.8 µM
- TGI (KM12 colon): 33.3 µM
- TGI (NCI-H226 lung): 45.5 µM
- TGI (OVCAR-8 ovarian): 32 µM
- TGI (IGROV1 ovarian): 33.9 µM
- TGI (PC-3 prostate): 32.6 µM
- TGI (SK-MEL-5 melanoma): 29.4 µM
- TGI (UO-31 renal): 30.2 µM
- TGI (RPMI-8226 leukemia): 4.97 µM
- TGI (HOP-62 NSCLC): > 57.2 µM
- TGI (MCF7 breast): 27.7 µM
- TGI (HCC-2998 colon): 32.7 µM
- TGI (SN12C renal): 29.2 µM
- TGI (NCI-H522 lung): 2.55 µM
- TGI (ACHN renal): 26.8 µM
- TGI (UACC-62 melanoma): 37 µM
- TGI (U251 CNS): 35.7 µM
- TGI (NCI/ADR-RES ovarian): 40.5 µM
- TGI (SNB-19 CNS): > 78.7 µM
- TGI (A498 renal): 31.7 µM
- TGI (OVCAR-3 ovarian): 28.2 µM
- TGI (786-0 renal): 31 µM
- TGI (BT-549 breast): 21.3 µM
- TGI (CCRF-CEM leukemia): 6.49 µM
- TGI (A549 NSCLC): 37.9 µM
- TGI (NCI-H460 lung): 41.6 µM
- TGI (HOP-92 NSCLC): 10.1 µM
- TGI (SF-539 CNS): 31.5 µM

SMILES: CC[C@@]1(C[C@H]2C[C@@]3(C(=O)OC)c4[nH]c5ccccc5c4CCN3C2=O)COC2(CCCCC2)O1
- TGI (HT29 colon): > 100 µM
- TGI (MDA-N): > 100 µM
- TGI (MOLT-4 leukemia): > 100 µM
- TGI (HCT-15 colon): > 100 µM
- TGI (MDA-MB-231 breast): > 100 µM
- TGI (SK-MEL-2 melanoma): 96.3 µM
- TGI (SNB-75 CNS): > 100 µM
- TGI (K-562 leukemia): > 100 µM
- TGI (COLO 205 colon): > 100 µM
- TGI (HCT-116 colon): > 100 µM
- TGI (T-47D breast): > 100 µM
- TGI (SF-295 CNS): > 100 µM
- TGI (HS 578T breast): 87 µM
- TGI (SK-OV-3 ovarian): > 100 µM
- TGI (NCI-H23 lung): > 100 µM
- TGI (M14 melanoma): > 100 µM
- TGI (SR leukemia): > 100 µM
- TGI (UACC-257 melanoma): 64.2 µM
- TGI (CAKI-1 renal): > 100 µM
- TGI (LOX IMVI melanoma): > 100 µM
- TGI (TK-10 renal): > 100 µM
- TGI (OVCAR-5 ovarian): > 100 µM
- TGI (RXF 393 renal): > 100 µM
- TGI (SF-268 CNS): > 100 µM
- TGI (OVCAR-4 ovarian): > 100 µM
- TGI (EKVX NSCLC): > 100 µM
- TGI (MALME-3M melanoma): > 100 µM
- TGI (DU-145 prostate): > 100 µM
- TGI (KM12 colon): 66.9 µM
- TGI (OVCAR-8 ovarian): > 100 µM
- TGI (IGROV1 ovarian): > 100 µM
- TGI (PC-3 prostate): > 100 µM
- TGI (SK-MEL-5 melanoma): 41.2 µM
- TGI (UO-31 renal): > 100 µM
- TGI (HOP-62 NSCLC): > 100 µM
- TGI (MCF7 breast): 91.4 µM
- TGI (HCC-2998 colon): 62.1 µM
- TGI (SN12C renal): > 100 µM
- TGI (NCI-H522 lung): > 100 µM
- TGI (ACHN renal): > 100 µM
- TGI (UACC-62 melanoma): > 100 µM
- TGI (NCI/ADR-RES ovarian): > 100 µM
- TGI (SNB-19 CNS): > 100 µM
- TGI (OVCAR-3 ovarian): > 100 µM
- TGI (786-0 renal): > 100 µM
- TGI (BT-549 breast): > 100 µM
- TGI (A549 NSCLC): > 100 µM
- TGI (NCI-H460 lung): > 100 µM
- TGI (SF-539 CNS): > 100 µM
- TGI (HL-60(TB) leukemia): > 100 µM

SMILES: O=C(NNC(=O)c1ccccc1SSc1ccccc1C(=O)NNC(=O)c1ccccc1S)c1ccccc1S
- TGI (HT29 colon): > 95.2 µM
- TGI (MDA-N): > 100 µM
- TGI (MOLT-4 leukemia): > 87 µM
- TGI (HCT-15 colon): 61.5 µM
- TGI (SK-MEL-28 melanoma): > 91.7 µM
- TGI (MDA-MB-231 breast): > 74.6 µM
- TGI (SK-MEL-2 melanoma): > 90.5 µM
- TGI (SNB-75 CNS): > 49.8 µM
- TGI (K-562 leukemia): > 100 µM
- TGI (COLO 205 colon): > 100 µM
- TGI (HCT-116 colon): > 65.1 µM
- TGI (T-47D breast): > 27.8 µM
- TGI (SF-295 CNS): > 100 µM
- TGI (SK-OV-3 ovarian): > 100 µM
- TGI (NCI-H23 lung): 62.2 µM
- TGI (M14 melanoma): > 100 µM
- TGI (SR leukemia): > 75.3 µM
- TGI (UACC-257 melanoma): > 95.4 µM
- TGI (CAKI-1 renal): > 100 µM
- TGI (LOX IMVI melanoma): > 100 µM
- TGI (TK-10 renal): > 100 µM
- TGI (SW-620 colon): > 100 µM
- TGI (OVCAR-5 ovarian): > 100 µM
- TGI (RXF 393 renal): > 100 µM
- TGI (SF-268 CNS): > 52.5 µM
- TGI (OVCAR-4 ovarian): > 100 µM
- TGI (EKVX NSCLC): > 71.5 µM
- TGI (MALME-3M melanoma): > 81.2 µM
- TGI (DU-145 prostate): > 54.7 µM
- TGI (KM12 colon): > 100 µM
- TGI (NCI-H226 lung): > 100 µM
- TGI (OVCAR-8 ovarian): > 100 µM
- TGI (IGROV1 ovarian): > 100 µM
- TGI (PC-3 prostate): > 74.9 µM
- TGI (SK-MEL-5 melanoma): > 100 µM
- TGI (UO-31 renal): > 100 µM
- TGI (RPMI-8226 leukemia): > 100 µM
- TGI (HOP-62 NSCLC): > 100 µM
- TGI (MCF7 breast): > 100 µM
- TGI (HCC-2998 colon): > 100 µM
- TGI (SN12C renal): > 92.6 µM
- TGI (NCI-H522 lung): 1.67 µM
- TGI (ACHN renal): > 100 µM
- TGI (UACC-62 melanoma): 54.8 µM
- TGI (U251 CNS): > 71.9 µM
- TGI (NCI/ADR-RES ovarian): > 73.6 µM
- TGI (SNB-19 CNS): > 100 µM
- TGI (OVCAR-3 ovarian): > 100 µM
- TGI (MDA-MB-435): > 100 µM
- TGI (786-0 renal): 98 µM
- TGI (BT-549 breast): 74.8 µM
- TGI (CCRF-CEM leukemia): 24.4 µM
- TGI (A549 NSCLC): > 100 µM
- TGI (NCI-H460 lung): > 100 µM
- TGI (HOP-92 NSCLC): > 100 µM
- TGI (SF-539 CNS): > 53.9 µM
- TGI (HL-60(TB) leukemia): 9.49 µM
